Laboratory results reported in patent US8895033B2, “Sustained release formulations using non-aqueous carriers” (Amylin Pharmaceuticals, LLC, priority 2008, dated 2014).

Assay: Fraction of drug in microparticles and in MCT oil carrier after storage
Type: physicochemical
Text: Mixtures ranged from 2% to 10% w/w of the active pharmaceutical ingredient. The mixed powder was transferred to an extruder where the temperature was adjusted according to the chosen polymer. Some polymers needed higher temperatures to produce a melt with good flow properties. The extruder contained twin screws that moved clockwise to produce efficient mixing. The material was extruded through a 1.5 mm orifice, collected, cooled at room temperature, and cut into short strands about 1-2 inches long. These strands were then fed into a 12-tooth rotor mill, followed by a sieving step to produce microparticles of about 20 to 100 microns. The microparticles were collected and stored at 5° C. until further use.
Experimental samples were prepared by dispersing about 50 mg of the microparticles into 0.75 mL of a MCT oil carrier. The samples were stored at 5° C. and 25° C. for two days, two weeks, or one month, at which times representative samples were tested. The fraction of drug that remained in the microparticles and the fraction of drug that partitioned into the MCT oil carrier were determined. Briefly, the samples were centrifuged to separate the microparticles from the MCT oil carrier. Each portion was treated independently to determine the amount of drug it contained. Results are reported on the basis of the percent residing in each independent portion.

[1] = PLGA copolymer, 1 Month Storage at 5° C.
[2] = PLGA copolymer, 1 Month Storage at 25° C.
[3] = PLGA copolymer, 2 Days Storage at 5° C.
[4] = PLGA copolymer, 2 Days Storage at 25° C.
[5] = polycaprolactone/PLGA copolymer, Two Weeks Storage, 5° C.
[6] = polycaprolactone/PLGA copolymer, Two Weeks Storage, 25° C.

Compound: bovine serum albumin
- percent of drug in MCT Carrier [1]: 0.0%
- percent of drug in Microparticles [1]: 100.0%
- percent of drug in MCT Carrier [2]: 0.0%
- percent of drug in Microparticles [2]: 100.0%
- percent of drug in MCT Carrier [3]: 0.0%
- percent of drug in Microparticles [3]: 100.0%
- percent of drug in MCT Carrier [4]: 0.0%
- percent of drug in Microparticles [4]: 100.0%

Compound: davalintide
- percent of drug in MCT Carrier [1]: 0.6%
- percent of drug in Microparticles [1]: 99.4%
- percent of drug in MCT Carrier [2]: 0.0%
- percent of drug in Microparticles [2]: 100.0%
- percent of drug in MCT Carrier [3]: 0.2%
- percent of drug in Microparticles [3]: 99.8%
- percent of drug in MCT Carrier [4]: 0.0%
- percent of drug in Microparticles [4]: 100.0%

Compound: O=C([O-])c1ccccc1O.[Na+] [sodium salicylate]
- percent of drug in MCT Carrier [1]: 1.3%
- percent of drug in Microparticles [1]: 98.7%
- percent of drug in MCT Carrier [2]: 1.5%
- percent of drug in Microparticles [2]: 98.5%
- percent of drug in MCT Carrier [3]: 0.5%
- percent of drug in Microparticles [3]: 99.5%
- percent of drug in MCT Carrier [4]: 2.3%
- percent of drug in Microparticles [4]: 97.7%

Compound: metreleptin
- percent of drug in MCT Carrier [1]: 0.0%
- percent of drug in Microparticles [1]: 100.0%
- percent of drug in MCT Carrier [2]: 0.0%
- percent of drug in Microparticles [2]: 100.0%
- percent of drug in MCT Carrier [3]: 0.0%
- percent of drug in Microparticles [3]: 100.0%
- percent of drug in MCT Carrier [4]: 0.0%
- percent of drug in Microparticles [4]: 100.0%

Compound: insulin
- percent of drug in MCT Carrier [1]: 0.5%
- percent of drug in Microparticles [1]: 99.5%
- percent of drug in MCT Carrier [2]: 0.7%

Compound: CC[C@H](C)[C@H](NC(=O)[C@@H]1CCCN1C(=O)CNC(=O)[C@H](Cc1ccccc1)NC(=O)[C@H](CC(N)=O)NC(=O)[C@H](CC(N)=O)NC(=O)[C@H](CO)NC(=O)[C@H](CO)NC(=O)[C@H](Cc1c[nH]cn1)NC(=O)[C@@H](NC(=O)[C@H](CC(C)C)NC(=O)[C@H](Cc1ccccc1)NC(=O)[C@H](CC(N)=O)NC(=O)[C@H](C)NC(=O)[C@H](CC(C)C)NC(=O)[C@H](CCCNC(=N)N)NC(=O)[C@H](CCC(N)=O)NC(=O)[C@@H](NC(=O)[C@H](C)NC(=O)[C@@H]1CSSC[C@H](NC(=O)[C@@H](N)CCCCN)C(=O)N[C@@H](CC(N)=O)C(=O)N[C@@H]([C@@H](C)O)C(=O)N[C@@H](C)C(=O)N[C@@H]([C@@H](C)O)C(=O)N1)[C@@H](C)O)C(C)C)C(=O)N[C@@H](CC(C)C)C(=O)N1CCC[C@H]1C(=O)N1CCC[C@H]1C(=O)N[C@H](C(=O)N[C@@H](CC(N)=O)C(=O)N[C@H](C(=O)NCC(=O)N[C@@H](CO)C(=O)N[C@@H](CC(N)=O)C(=O)N[C@H](C(=O)N[C@@H](Cc1ccc(O)cc1)C(N)=O)[C@@H](C)O)C(C)C)[C@@H](C)O [pramlintide]
- percent of drug in MCT Carrier [1]: 0.3%
- percent of drug in Microparticles [1]: 99.7%
- percent of drug in MCT Carrier [2]: 0.0%
- percent of drug in Microparticles [2]: 100.0%
- percent of drug in MCT Carrier [3]: 0.0%
- percent of drug in Microparticles [3]: 100.0%
- percent of drug in MCT Carrier [4]: 0.0%
- percent of drug in Microparticles [4]: 100.0%
- percent of drug in MCT Carrier [5]: 0.0%
- percent of drug in Microparticles [5]: 100.0%
- percent of drug in MCT Carrier [6]: 0.0%
- percent of drug in Microparticles [6]: 100.0%

Compound: O=C(O)c1ccccc1O [salicylic acid]
- percent of drug in MCT Carrier [1]: 0.1%
- percent of drug in Microparticles [1]: 99.9%
- percent of drug in MCT Carrier [2]: 0.2%
- percent of drug in Microparticles [2]: 99.8%
- percent of drug in MCT Carrier [3]: 1.1%
- percent of drug in Microparticles [3]: 98.9%
- percent of drug in MCT Carrier [4]: 0.9%
- percent of drug in Microparticles [4]: 99.1%
- migration into the MCT carrier oil (from microparticles on storage): did not migrate
